Experimental data as given in patent US5248796A, “Taxol derivatives” (Bristol-Myers Squibb Company, priority 1992, dated 1993).
Where two headings read alike, the source gives them in different places.

What was measured:
[1] = tested on: HCT-116 human colon carcinoma cells; test: In vitro cytotoxicity, XTT assay, HCT-116 human colon carcinoma cells; type: cell-based; conditions: read-out: IC50 HCT-116
[2] = tested on: HCT-116/VM46 human colon carcinoma cells; test: In vitro cytotoxicity, XTT assay, HCT-116/VM46 cells (teniposide-resistant, multidrug resistance phenotype); type: cell-based; conditions: for fold resistance relative to HCT116 cells: 4320 min; for IC50: Homo sapiens, read-out: IC50 HCT-116/VM46
[3] = background statement; cited from earlier work
[4] = HCT-116/VM46 relative to HCT116, value in parenthesis
[5] = HCT-116/VM46, teniposide-resistant, multidrug resistance phenotype, XTT, 72 hours, 37° C.

## C=C1C2=CC(=O)[C@]3(C)[C@@H](OC(=O)C(F)Cl)C[C@H]4OC[C@@]4(OC(C)=O)[C@H]3[C@H](OC(=O)c3ccccc3)[C@](O)(C[C@@H]1OC(=O)[C@H](O)[C@@H](NC(=O)c1ccccc1)c1ccccc1)C2(C)C (some centres unmarked) [Example 3, 7-O-chlorofluoroacetyl-10-desacetoxy-11,12-dihydrotaxol-10,12(18)-diene]
[1]; HCT-116, 72 h
  IC50: 38 nM

## C=C1C2=CC(=O)[C@]3(C)[C@H](O)C[C@H]4OC[C@@]4(OC(C)=O)[C@H]3[C@H](OC(=O)c3ccccc3)[C@](O)(C[C@@H]1OC(=O)[C@H](O)[C@@H](NC(=O)c1ccccc1)c1ccccc1)C2(C)C [Example 16, 10-Desacetoxy-11,12-dihydro-7-epitaxol-10,12(18)-diene]
[1]; HCT-116, 72 h
  IC50: 40 nM

## CC(=O)O[C@@]12CO[C@@H]1C[C@H](O)[C@@]1(C)C(=O)CC3=C(C)[C@@H](OC(=O)[C@H](O)[C@@H](NC(=O)c4ccccc4)c4ccccc4)C[C@@](O)([C@@H](OC(=O)c4ccccc4)[C@H]21)C3(C)C [Example 10, 10-Desacetoxytaxol]
[1]; HCT-116, XTT, 72 hours, 37° C.
  IC50: 8 nM
[2]; [4]
  fold resistance relative to HCT116 cells: 153 fold
[2]; [5]
  IC50: 1220 nM

## CC(=O)O[C@@]12CO[C@@H]1C[C@@H](O)[C@@]1(C)C(=O)CC3=C(C)[C@@H](OC(=O)[C@H](O)[C@@H](NC(=O)c4ccccc4)c4ccccc4)C[C@@](O)([C@@H](OC(=O)c4ccccc4)[C@H]21)C3(C)C [Example 13, 7-Epi-10-desacetoxytaxol]
[1]; HCT-116, XTT, 72 hours, 37° C.
  IC50: > 98 nM
[2]; [4]
  fold resistance relative to HCT116 cells: < 32 fold
[2]; [5]
  IC50: 3090 nM

## CC(=O)O[C@@]12CO[C@@H]1C[C@H](OC(=O)C(F)Cl)[C@@]1(C)C(=O)CC3=C(C)[C@@H](OC(=O)[C@H](O)[C@@H](NC(=O)c4ccccc4)c4ccccc4)C[C@@](O)([C@@H](OC(=O)c4ccccc4)[C@H]21)C3(C)C (some centres unmarked) [Example 4, 7-O-chlorofluoroacetyl-10-desacetoxytaxol]
[1]; HCT-116, 72 h
  IC50: 8 nM

## C=C1C2=CC(=O)[C@@]3(C)[C@H]([C@H](OC(=O)c4ccccc4)[C@](O)(C[C@@H]1OC(=O)[C@H](O)[C@@H](NC(=O)c1ccccc1)c1ccccc1)C2(C)C)[C@]1(OC(C)=O)CO[C@@H]1C[C@@H]3O [Example 9, 10-Desacetoxy-11,12-dihydrotaxol-10,12(18)-diene]
[1]; HCT-116, 72 h
  IC50: 38 nM

## CC(=O)O[C@H]1C(=O)[C@@]2(C)[C@H]([C@H](OC(=O)c3ccccc3)[C@]3(O)C[C@H](OC(=O)[C@H](O)[C@@H](NC(=O)c4ccccc4)c4ccccc4)C(C)=C1C3(C)C)[C@]1(OC(C)=O)CO[C@@H]1C[C@@H]2O [Taxol]
[3]
  antitumor activity in in vivo animal models: excellent antitumor activity
[1]; HCT-116, 72 h
  IC50: 4 nM
[2]; HCT-116/VM46, 72 h
  IC50: 440 nM
[2]; human, hct-116/vm46 cells
  fold resistance relative to HCT116 cells: 124 fold
